Results on 37 molecules are retold here after US6432958B1, “2-piperazinoalkylaminobenzoazole derivatives: dopamine receptor subtype specific ligands” (Neurogen Corporation, priority 1998, dated 2002).

The term melting point denotes the temperature, or range, at which the solid turns liquid. As a reminder, the pKi is −log10 of the Ki, conventionally taken in molar units.

The target in one data set is T1, D4 receptors from human (Homo sapiens, UniProt P21917).
T1 construct: expressed in transfected cells; host or cells: COS cells
T1 sequence (P21917 1-419): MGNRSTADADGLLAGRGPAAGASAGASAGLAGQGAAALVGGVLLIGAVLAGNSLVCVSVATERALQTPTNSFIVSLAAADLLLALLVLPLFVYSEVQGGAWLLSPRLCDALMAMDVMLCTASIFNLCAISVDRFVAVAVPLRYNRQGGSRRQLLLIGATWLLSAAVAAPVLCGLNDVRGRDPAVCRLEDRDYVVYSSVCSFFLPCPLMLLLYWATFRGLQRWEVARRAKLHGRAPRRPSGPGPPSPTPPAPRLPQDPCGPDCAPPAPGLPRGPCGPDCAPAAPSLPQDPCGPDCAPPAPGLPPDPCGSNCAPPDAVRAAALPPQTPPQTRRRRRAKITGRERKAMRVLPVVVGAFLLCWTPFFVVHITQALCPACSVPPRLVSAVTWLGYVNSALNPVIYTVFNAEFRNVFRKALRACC
Nature of the data set: D4 receptor binding assay (3H-YM 09151-2 displacement). The conditions noted are these: COS cells containing recombinantly produced human D4 receptors; 0.5 nM 3H-YM 09151-2. The protocol: (§1) Assays for D2, D3 and D4 Receptor Binding Activity
(§2) Pellets of COS cells containing recombinantly produced D2 or D4 receptors from human are used for the assays. The sample is homogenized in 100 volumes (w/vol) of 0.05 M Tris HCl buffer at 4° C. and pH 7.4. The sample is then centrifuged at 30,000×g and resuspended and rehomogenized. The sample is then centrifuged again at 30,000×g and the final tissue sample is frozen until use. The tissue is resuspended 1:20 (wt/vol) in 0.05 M Tris HCl buffer containing 100 mM NaCl.
(§3) Incubations are carried out a […] and contain 0.4 ml of tissue sample, 0.5 nM ^3H-YM 09151-2 (Nemonapride, cis-5-Chloro-2-methoxy-4-(methylamino)-N-(2-methyl-2-(phenylmethyl)-3-pyrrolidinyl)benzamide) and the compound of interest in a total incubation of 1.0 ml. Nonspecific binding is defined as that binding found in the presence of […] spiperone; without further additions, nonspecific binding is less than 20% of total binding.

The next data set has as its target T2, D2 receptors from human (Homo sapiens, UniProt P14416).
T2 construct: expressed in transfected cells; host or cells: COS cells
Nature of the data set: D2 receptor binding assay (3H-YM 09151-2 displacement). The conditions noted are these: COS cells containing recombinantly produced human D2 receptors; 0.5 nM 3H-YM 09151-2. As to the method:
as §1, §2, §3

pKi: −log10 of the molar value.

T2 sequence (P14416 whole entry): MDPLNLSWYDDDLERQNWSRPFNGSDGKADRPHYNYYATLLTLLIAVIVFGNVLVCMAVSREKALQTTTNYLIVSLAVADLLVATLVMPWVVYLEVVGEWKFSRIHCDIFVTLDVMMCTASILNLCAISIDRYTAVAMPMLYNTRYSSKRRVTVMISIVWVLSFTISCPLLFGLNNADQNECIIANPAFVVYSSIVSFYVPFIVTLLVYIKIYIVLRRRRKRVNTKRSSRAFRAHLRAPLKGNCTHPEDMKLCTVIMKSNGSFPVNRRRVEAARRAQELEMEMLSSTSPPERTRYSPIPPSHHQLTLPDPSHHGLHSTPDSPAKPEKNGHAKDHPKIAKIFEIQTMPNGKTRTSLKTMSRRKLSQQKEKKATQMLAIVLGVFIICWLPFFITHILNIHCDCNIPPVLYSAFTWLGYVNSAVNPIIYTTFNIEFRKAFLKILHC

For the molecule `Br.COc1ccccc1N1CCN(CCNc2nc3c(C)cccc3s2)CC1`, the melting point was 226 to 227 °C.

As for `Br.CC(C)Oc1ccccc1N1CCN(CCNc2nc3ccccc3n2C)CC1`, the melting point is 285 °C (dec.). As for `Br.c1ccc(N2CCN(CCNc3nc4ccccc4[nH]3)CC2)cc1`, the melting point is 241 to 247 °C. Still for that read-out and setting: the value for `O=C(O)/C=C/C(=O)O.O=C(O)/C=C/C(=O)O.c1cnc(N2CCN(CCNc3nc4ccccc4s3)CC2)nc1` was 161 to 163 °C; that for `Br.COc1ccccc1N1CCN(CCNc2nc3c(Cl)cccc3s2)CC1` was 194 to 195 °C. On the same count and under the same terms, the value for `Br.CC(C)Oc1ccccc1N1CCN(CCNc2nc3ccc(F)cc3s2)CC1` was 216 to 217 °C. Same read-out and setting: the figure for `Cc1cnc(N2CCN(CCNc3nc4ccccc4s3)CC2)nc1.O=C(O)/C=C/C(=O)O.O=C(O)/C=C/C(=O)O` is 167 to 170 °C; for `Br.Cc1cnc(N2CCN(CCNc3nc4ccc(F)cc4s3)CC2)nc1` it is 240 to 250 °C; for `O=C(O)/C=C/C(=O)O.O=C(O)/C=C/C(=O)O.c1ccc(N2CCN(CCNc3nc4ccccc4s3)CC2)nc1` it is 159 to 160 °C. `Cl.Cl.Fc1ccc(N2CCN(CCNc3nc4ccccc4s3)CC2)cc1` registered a melting point of 229 to 231 °C.

For `Br.COc1ccccc1N1CCN(CCNc2nc3ccccc3[nH]2)CC1`, the melting point lay in the range of 215 to 216 °C. On the same count and under the same terms, the value for `Cl.Cl.Clc1ccc(N2CCN(CCNc3nc4ccccc4s3)CC2)cc1` was 230 to 232 °C. For the molecule `Br.CCn1c(NCCN2CCN(c3ccccc3OC)CC2)nc2ccccc21`, the melting point lay in the range of 109 to 110 °C. On the same count and under the same terms, the figure for `Fc1ccc2nc(NCCN3CCN(c4ncccn4)CC3)sc2c1.O=C(O)/C=C/C(=O)O.O=C(O)/C=C/C(=O)O` is 179 to 180 °C.

As for `Br.Cn1c(NCCN2CCN(c3cccc(C(F)(F)F)c3)CC2)nc2ccccc21` [Compound 1, 1-(3-Trifluoromethylphenyl)-4-(2-[1-methylbenzimidazol-2-yl]aminoethyl)piperazine hydrobromide], the melting point was 283 °C (dec.). On D4 receptors from human, the negative-log Ki (pKi) is 8.52. In addition, the negative logarithm of the Ki (pKi) on D2 receptors from human was under 5.00. On to `Br.CCOc1ccccc1N1CCN(CCNc2nc3ccc(F)cc3s2)CC1`, for which the melting point lay within 235 to 237 °C. On to `Cl.c1ccc(N2CCN(CCNc3nc4ccccc4o3)CC2)nc1` [Compound 3, 1-(Pyridin-2-yl)-4-(2-[benzoxazol-2-yl]aminoethyl)piperazine hydrochloride], for which the melting point lay within 255 to 265 °C. Moreover, the negative logarithm of the Ki (pKi) on D4 receptors from human was 7.96. Also, the negative-log Ki (pKi) at D2 receptors from human was under 5.00. Consider `Br.CCOc1ccc2nc(NCCN3CCN(c4ccccc4OC)CC3)sc2c1`, for which the melting point lay within 227 to 228 °C. `Br.COc1ccccc1N1CCN(CCNc2nc3ccccc3n2C)CC1` displayed a melting point of 273 to 274 °C. In turn, `Br.Fc1ccc2nc(NCCN3CCN(c4cccc(C(F)(F)F)c4)CC3)sc2c1` registered a melting point of 259 to 261 °C. The same measure, in the same setting: the value for `Br.Fc1ccc2nc(NCCN3CCN(c4ccccn4)CC3)sc2c1` was 259 to 260 °C. The same measure, in the same setting: the value for `Cl.c1cnc(N2CCN(CCNc3nc4ccccc4o3)CC2)nc1` was 197 to 202 °C; that for `Br.COc1ccccc1N1CCN(CCCNc2nc3ccccc3s2)CC1` was 195 to 197 °C. Molecule `Br.COc1ccccc1N1CCN(CCNc2nc3c(OC)cccc3s2)CC1` showed a melting point of 171 to 173 °C.

On to `Br.c1ccc(N2CCN(CCNc3nc4ccccc4[nH]3)CC2)nc1`, for which the melting point lay in the range of 290 to 291 °C.

`Br.Fc1ccc(N2CCN(CCNc3nc4ccc(F)cc4s3)CC2)cc1` came in with a melting point of 270 to 271 °C. `Fc1ccc2nc(NCCN3CCN(Cc4ccccc4)CC3)sc2c1.O=C(O)/C=C/C(=O)O.O=C(O)/C=C/C(=O)O` gave a melting point of 228 to 229 °C.

As to `Fc1cnc(N2CCN(CCCCNc3nc4ccccc4s3)CC2)nc1` [Compound 6], the pKi at D4 receptors from human is 8.22; at D2 receptors from human, 5.79. `Br.Fc1ccc2nc(NCCN3CCN(Cc4ccc(Cl)cc4)CC3)sc2c1` had a melting point of 238 to 240 °C.

Molecule `Br.Fc1ccc2nc(NCCN3CCN(c4ccccc4)CC3)sc2c1` yielded a melting point of 268 to 270 °C. Same read-out and setting: the figure for `Br.CCn1c(NCCN2CCN(c3ccccc3)CC2)nc2ccccc21` is 270 °C (dec.); for `O=C(O)/C=C/C(=O)O.O=C(O)/C=C/C(=O)O.c1ccc(N2CCN(CCNc3nc4ccccc4s3)CC2)cc1` it is 131 to 132 °C; for `Fc1cnc(N2CCN(CCNc3nc4ccccc4s3)CC2)nc1.O=C(O)/C=C/C(=O)O.O=C(O)/C=C/C(=O)O` it is 174 to 175 °C.

In turn, `Br.Fc1cnc(N2CCN(CCNc3nc4ccc(F)cc4s3)CC2)nc1` showed a melting point of 279 to 281 °C. Take `COc1ccccc1N1CCN(CCNc2nc3ccc(F)cc3s2)CC1` [Compound 2, 1-(2-Methoxyphenyl)-4-(2-[6-fluorobenzothiazol-2-ylamino]ethyl)piperazine difumarate]: the pKi on D4 receptors from human is 9.00; at D2 receptors from human, 6.76. On to `COc1ccccc1N1CCN(CCNc2nc3ccccc3s2)CC1.O=C(O)/C=C/C(=O)O.O=C(O)/C=C/C(=O)O`, for which the melting point is 101 to 103 °C. Same read-out and setting: the value for `Br.COc1ccccc1N1CCN(CCNc2nc3ccc(S(C)(=O)=O)cc3s2)CC1` was 190 to 196 °C.
